Results reported in patent US6355799B1, “Substituted benzene compounds, process for their preparation, and herbicidal and defoliant compositions containing them” (ISK Americas Incorporated, priority 1997, dated 2002).

Columns and labels:
Format in all cases: in vivo
[1] = tested on: redroot pigweed (Amaranthus retroflexus, AMARE); assay: Pre-emerge test, greenhouse herbicide activity screening; details: pre-emerge, 14 days after application, rating scale 0-100
Summary of the method: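 Herbicidal damage is scored 0 (none) to 100 (complete plant death) two weeks after a simulated field spray. Rates span 15–1000 g ai/ha, delivered in acetone at 187 l/ha. For post-emergence treatments, plants have 2–3 leaves and the spray carries 0.25% v/v non-ionic surfactant.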

[2] = tested on: barnyardgrass (Echinochloa crus-galli, ECHCG); assay: as above; details: pre-emerge, 14 days after application, rating scale 0-100
Summary of the method: (§1)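 Sandy loam pots; pre-emerge: sown 1 d pre-spray, surface-watered after, then bottom-watered. Post-emerge: sown 8–21 d before, 2–3 leaf stage, + 0.25% v/v NIS, bottom-watered. Acetone, 187 l/ha track spray, 15–1000 g ai/ha. 0–100 injury score, day 14.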

[3] = tested on: green foxtail (Setaria viridis, SETVI); assay: as above; details: pre-emerge, 14 days after application, rating scale 0-100
Summary of the method: as §1

[4] = tested on: ivyleaf morningglory (Ipomoea hederacea, IPOHE); assay: as above; details: pre-emerge, 14 days after application, rating scale 0-100
Summary of the method: as §1

[5] = tested on: johnsongrass (Sorghum halepense, SORHA); assay: as above; details: pre-emerge, 14 days after application, rating scale 0-100
Summary of the method: as §1

[6] = tested on: lambsquarters (Chenopodium album, CHEAL); assay: as above; details: pre-emerge, 14 days after application, rating scale 0-100
Summary of the method: as §1

[7] = tested on: large crabgrass (Digitaria sanguinalis, DIGSA); assay: as above; details: pre-emerge, 14 days after application, rating scale 0-100
Summary of the method: as §1

[8] = tested on: sicklepod (Cassia obtusifolia, CASOB); assay: as above; details: pre-emerge, 14 days after application, rating scale 0-100
Summary of the method: as §1

[9] = tested on: velvetleaf (Abutilon theophrasti, ABUTH); assay: as above; details: pre-emerge, 14 days after application, rating scale 0-100
Summary of the method: as §1

[10] = tested on: field corn (Zea mays L., var. Dekalb 535, CORN); assay: Pre-emerge test, crop safety; details: pre-emerge, 14 days after application, rating scale 0-100
Summary of the method: (§2)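 Compounds in acetone were track-sprayed at 187 l/ha, 15–1000 g ai/ha, onto sandy loam pots. Pre-emerge seeds were sown one day before spraying, with surface watering afterwards. Post-emerge plants were at the 2–3 leaf stage and sprayed with 0.25% v/v non-ionic surfactant. Injury was rated 0–100 at 14 days.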

[11] = tested on: upland rice (Oryza sp., var. Tebonnet, RICE); assay: Pre-emerge test, crop safety; details: pre-emerge, 14 days after application, rating scale 0-100
Summary of the method: as §2

[12] = tested on: barnyardgrass (Echinochloa crus-galli, ECHCG); assay: Post-emerge test, greenhouse herbicide activity screening; details: rating scale 0-100 (0 no damage, 100 complete death), 14 days after application
Summary of the method: (§3)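 Fourteen days after spraying, crop and weed injury was graded visually from 0, no effect, to 100, every plant dead. Test substances were dissolved in acetone and applied at 15–1000 g ai/ha with a flat-fan nozzle. Application was either pre-emergence, one day after sowing, or post-emergence at the 2–3 leaf stage.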

[13] = tested on: green foxtail (Setaria viridis, SETVI); assay: as above; details: rating scale 0-100 (0 no damage, 100 complete death), 14 days after application
Summary of the method: as §3

[14] = tested on: ivyleaf morningglory (Ipomoea hederacea, IPOHE); assay: as above; details: rating scale 0-100 (0 no damage, 100 complete death), 14 days after application
Summary of the method: as §3

[15] = tested on: johnsongrass (Sorghum halepense, SORHA); assay: as above; details: rating scale 0-100 (0 no damage, 100 complete death), 14 days after application
Summary of the method: as §3

[16] = tested on: lambsquarters (Chenopodium album, CHEAL); assay: as above; details: rating scale 0-100 (0 no damage, 100 complete death), 14 days after application
Summary of the method: as §3

[17] = tested on: large crabgrass (Digitaria sanguinalis, DIGSA); assay: as above; details: rating scale 0-100 (0 no damage, 100 complete death), 14 days after application
Summary of the method: as §3

[18] = tested on: redroot pigweed (Amaranthus retroflexus, AMARE); assay: as above; details: rating scale 0-100 (0 no damage, 100 complete death), 14 days after application
Summary of the method: as §3

[19] = tested on: sicklepod (Cassia obtusifolia, CASOB); assay: as above; details: rating scale 0-100 (0 no damage, 100 complete death), 14 days after application
Summary of the method: as §3

[20] = tested on: velvetleaf (Abutilon theophrasti, ABUTH); assay: as above; details: rating scale 0-100 (0 no damage, 100 complete death), 14 days after application
Summary of the method: as §3

[21] = tested on: field corn (Zea mays L., var. Dekalb 535, CORN); assay: Post-emerge test, crop safety; details: rating scale 0-100 (0 no damage, 100 complete death), 14 days after application
Summary of the method: as §1

[22] = tested on: upland rice (Oryza sp., var. Tebonnet, RICE); assay: Post-emerge test, crop safety; details: rating scale 0-100 (0 no damage, 100 complete death), 14 days after application
Summary of the method: as §1

CCOC(=O)C(Cl)(CC(=O)OC)Cc1c(OC)c(Cl)cc(F)c1-n1c(=O)cc(C(F)(F)F)n(C)c1=O (centres unmarked) [14-50]
phytotoxicity rating AMARE ([1]; 63 g ai/ha): 100
phytotoxicity rating AMARE ([1]; 250 g ai/ha): 100
phytotoxicity rating ECHCG ([2]; 63 g ai/ha): 0
phytotoxicity rating ECHCG ([2]; 250 g ai/ha): 30
phytotoxicity rating SETVI ([3]; 63 g ai/ha): 0
phytotoxicity rating SETVI ([3]; 250 g ai/ha): 50
phytotoxicity rating IPOHE ([4]; 63 g ai/ha): 10
phytotoxicity rating IPOHE ([4]; 250 g ai/ha): 70
phytotoxicity rating SORHA ([5]; 63 g ai/ha): 50
phytotoxicity rating SORHA ([5]; 250 g ai/ha): 95
phytotoxicity rating CHEAL ([6]; 63 g ai/ha): 100
phytotoxicity rating CHEAL ([6]; 250 g ai/ha): 100
phytotoxicity rating DIGSA ([7]; 63 g ai/ha): 0
phytotoxicity rating DIGSA ([7]; 250 g ai/ha): 40
phytotoxicity rating CASOB ([8]; 63 g ai/ha): 0
phytotoxicity rating CASOB ([8]; 250 g ai/ha): 30
phytotoxicity rating ABUTH ([9]; 63 g ai/ha): 0
phytotoxicity rating ABUTH ([9]; 250 g ai/ha): 50
phytotoxicity rating CORN ([10]; 63 g ai/ha): 10
phytotoxicity rating CORN ([10]; 250 g ai/ha): 90
phytotoxicity rating RICE ([11]; 63 g ai/ha): 0
phytotoxicity rating RICE ([11]; 250 g ai/ha): 0
Post-emerge Herbicidal Activity, phytotoxicity rating ECHCG ([12]; Rate 63 g ai/ha): 0
Post-emerge Herbicidal Activity, phytotoxicity rating ECHCG ([12]; Rate 250 g ai/ha): 0
Post-emerge Herbicidal Activity, phytotoxicity rating SETVI ([13]; Rate 63 g ai/ha): 0
Post-emerge Herbicidal Activity, phytotoxicity rating SETVI ([13]; Rate 250 g ai/ha): 0
Post-emerge Herbicidal Activity, phytotoxicity rating IPOHE ([14]; Rate 63 g ai/ha): 0
Post-emerge Herbicidal Activity, phytotoxicity rating IPOHE ([14]; Rate 250 g ai/ha): 0
Post-emerge Herbicidal Activity, phytotoxicity rating SORHA ([15]; Rate 63 g ai/ha): 0
Post-emerge Herbicidal Activity, phytotoxicity rating SORHA ([15]; Rate 250 g ai/ha): 0
Post-emerge Herbicidal Activity, phytotoxicity rating CHEAL ([16]; Rate 63 g ai/ha): 50
Post-emerge Herbicidal Activity, phytotoxicity rating CHEAL ([16]; Rate 250 g ai/ha): 100
Post-emerge Herbicidal Activity, phytotoxicity rating DIGSA ([17]; Rate 63 g ai/ha): 0
Post-emerge Herbicidal Activity, phytotoxicity rating DIGSA ([17]; Rate 250 g ai/ha): 50
Post-emerge Herbicidal Activity, phytotoxicity rating AMARE ([18]; Rate 63 g ai/ha): 100
Post-emerge Herbicidal Activity, phytotoxicity rating AMARE ([18]; Rate 250 g ai/ha): 100
Post-emerge Herbicidal Activity, phytotoxicity rating CASOB ([19]; Rate 63 g ai/ha): 90
Post-emerge Herbicidal Activity, phytotoxicity rating CASOB ([19]; Rate 250 g ai/ha): 100
Post-emerge Herbicidal Activity, phytotoxicity rating ABUTH ([20]; Rate 63 g ai/ha): 30
Post-emerge Herbicidal Activity, phytotoxicity rating ABUTH ([20]; Rate 250 g ai/ha): 50
Post-emerge phytotoxicity rating CORN (crop damage) ([21]; Rate 63 g ai/ha): 10
Post-emerge phytotoxicity rating CORN (crop damage) ([21]; Rate 250 g ai/ha): 30
Post-emerge phytotoxicity rating RICE (crop damage) ([22]; Rate 63 g ai/ha): 30
Post-emerge phytotoxicity rating RICE (crop damage) ([22]; Rate 250 g ai/ha): 50
